From patent publication US8283376B2, “Use of substituted 2-aminotetralins for preventive treatment of parkinson's disease” (UCB Pharma GmbH, priority 2003, dated 2012)

Experiments:
[1] = tested on: monkeys (macaques) injected with MPTP; assay: Progressive MPTP primate model of morbus Parkinson (pilot study); format: in vivo
Procedure: In the model used, which reflects the progressive course of morbus Parkinson in primates, monkeys (macaques) were injected with subliminal toxic doses of MPTP for several days. Parkinson's symptoms developed in the model over a period of approximately 2 weeks. As soon as a certain level of damage had been reached, rotigotine was injected daily in a formulation that produced a continuous plasma level over 24 hours. The MPTP injections were stopped as soon as the motor activity had been reduced to a certain extent (approximately 5 days later). The behavior of the animals was assessed on a daily basis. […] A group of animals was killed at the end of both the rotigotine administration and the clearance phase, and the condition of the basal ganglia was histologically and biochemically examined.

[2] = tested on: neurones of the substantia nigra; assay: Acute MPTP model (including apoptosis), FluoroJade staining of degenerating neurones; format: in vivo; details: mouse; for No. of degenerating neurones: FluoroJade staining
Procedure: (§1) The 2-aminotetralins according to the invention, in particular rotigotine, thereby display a neuroprotective effect in a mouse model of Parkinson's disease: Following the acute administration of MPTP, which causes Parkinson's syndrome in both humans and monkeys, the number of the degenerating neurones in the acute phase was measured on the one hand (Table 1) and the functional integrity of the striatum in the sub-acute phase was ascertained on the other by determining the density of the dopamine transporter in the terminal nerve endings (FIGS. 1 and 2).
For the purpose of intoxication, 80 mg/kg of the neurotoxin 1-methyl-4-phenyl-1,2,3,6-tetrahydro-pyridine (MPTP) were administered to mice (in doses of 20 mg/kg at two-hour intervals), which led to the degeneration of approximately 50 to 60% of the neurones of the substantia nigra. Approximately 16 hours beforehand, rotigotine was administered in doses of 0.3, 1 or 3 mg/kg respectively, as the so-called “slow-release formulation”. Diffusion and absorption latencies led to rotigotine then being optimally available when MPTP was administered. The animals were killed after 24 hours and their brains fixed. The brain sections were stained with FluoroJade to identify degenerating cells. The immunohistochemical marking of tyrosine-hydroxylase helped to identify dopaminergic neurones.

[3] = tested on: patients with Parkinson's disease; details: cited from earlier work
[4] = tested on: dopamine transporters in the striatum; assay: Sub-acute MPTP model, dopamine transporter density in the striatum ([125I]PE2I binding); format: in vivo, mice
Procedure: Groups 1 to 7 were treated as follows: Group 1: untreated control group; Group 2: control group treated with a vehicle solution for rotigotine and MPTP; Group 3: MPTP treatment; Group 4: MPTP treatment plus rotigotine 0.3 mg/kg; Group 5: MPTP treatment plus rotigotine 1.0 mg/kg; Group 6: MPTP treatment plus rotigotine 3.0 mg/kg; Group 7: treatment solely with rotigotine (3.0 mg/kg).
as §1
For the purpose of intoxication, 80 mg/kg of the neurotoxin 1-methyl-4-phenyl-1,2,3,6-tetrahydro-pyridine (MPTP) were administered to mice (in doses of 20 mg/kg at two-hour intervals, groups 3 to 6 in FIGS. 1 and 2), which led to the degeneration of approximately 50 to 60% of the neurones of the substantia nigra (maximum degeneration in group 3 in FIGS. 1 and 2). […]

CCCN(CCc1cccs1)C1CCc2c(O)cccc2C1 (single isomer, unassigned; (-)) [rotigotine, (−)-5,6,7,8-tetrahydro-6-[propyl[2-(2-thienyl)ethyl]amino]-1-naphthol]
Density of the nerve endings in the striatum ([1]; compared to untreated animals): significantly increased
Motor activity of the animals ([1]; daily rotigotine injections, during treatment and in the following clearance phase): clearly improved
Content of pre-pro-enkephalin (basal ganglia) ([1]; following treatment and the clearance phase): showed a tendency towards normalisation
No. of degenerating neurones ([2]; MPTP intoxication + rotigotine 0.3 mg/kg): 66.7
No. of degenerating neurones ([2]; MPTP intoxication + rotigotine 1.0 mg/kg): 76.8
No. of degenerating neurones ([2]; MPTP intoxication + rotigotine 3.0 mg/kg): 34.9
No. of degenerating neurones ([2]; MPTP-vehicle + rotigotine 3.0 mg/kg (no MPTP)): 3.8
Staining of tyrosine hydroxylase (dopaminergic neurones) ([2]; acute MPTP model, 24 hours, treated vs untreated animals): did not display any differences between the treated and untreated animals
Reduction of the number of degenerating neurones following application of rotigotine ([2]; acute MPTP model, versus MPTP intoxication): approximately 50%
Number of degenerating neurones in the mesencephalon ([2]; acute phase after MPTP): reduced
Dyskinesias ([3]; patients with pronounced dyskinesias, Metman et al. (2001)): improved
UPDRS (Unified Parkinson's Disease Rating Scale) score ([3]; transdermal administration, patients with Parkinson's disease, WO 02/089777): improvement
Survival of the neurones and their nerve endings (dopamine transporter density in the striatum) ([4]; mice, MPTP 80 mg/kg, rotigotine 0.3, 1 or 3 mg/kg daily for 7 days, slow-release formulation): improved the survival of the neurones and their nerve endings depending on the dosage
Dopaminergic innervation of the striatum (density of the dopamine transporter) ([4]; mouse, sub-acute phase after MPTP): almost completely maintained or restored
